pEC50, pIC50: −log10 of the molar value.
Legend:
[1] = molecular target: human metabotropic glutamate receptor 5 (hmGluR5); assay: Calcium mobilization (FLIPR) assay, negative allosteric modulation of the EC80 glutamate response; format: cell-based; settings: HEK 293 cells, inhibition of EC80 glutamate response
Description: (§1) The cDNA for human metabotropic glutamate receptor 5 (hmGluR5) was a generous gift from S. Nakanishi (Kyoto University, Kyoto, Japan). The […] was stably expressed in a HEK 293 cell line and grown in Dulbecco's Modified Eagle Medium (DMEM) (Invitrogen, Carlsbad, Calif.) with supplements (10% bovine calf serum, 4 mM glutamine, 100 units/mL penicillin, 100 μg/mL streptomycin and […]) at 37° C., 5% CO2. Twenty-four hours prior to assay, cells were seeded into 384-well black wall microtiter plates coated with poly-D-lysine. Just prior to assay, media was aspirated and cells dye-loaded (25 μL/well) with 3 μM Fluo-4/0.01% pluronic acid in assay buffer (Hank's Balanced Saline Solution (HBSS)): 150 mM NaCl, 5 mM KCl, 1 mM CaCl2, 1 mM MgCl2, plus 20 mM N-2-Hydroxyethylpiperazine-N′-2-ethanesulfonic acid (HEPES), pH 7.4, 0.1% bovine serum albumin (BSA) and 2.5 mM probenicid) for 1 hour in 5% CO2 at 37° C. After excess dye was discarded, cells were washed in assay buffer and layered with a final volume equal to 30 μL/well. Basal fluorescence is monitored in a fluorometric imaging plate reader (FLIPR) (Molecular Devices, Sunnyvale, Calif.) with an excitation wavelength of 488 nm and an emission range of 500 to 560 nm. Laser excitation energy was adjusted so that basal fluorescence readings were approximately 10,000 relative fluorescent units. Cells were stimulated with an EC20 or an EC80 concentration of glutamate in the presence of a compound to be tested, both diluted in assay buffer, and relative fluorescent units were measured at defined intervals (exposure=0.6 sec) over a 3 min period at room temperature. Basal readings derived from negative controls were subtracted from all samples. Maximum change in fluorescence was calculated for each well. Concentration-response curves derived from the maximum change in fluorescence were analyzed by nonlinear regression (Hill equation).
A negative allosteric modulator (NAM) can be identified from these concentration-response curves if a compound produces a concentration dependent inhibition of the EC80 glutamate response.

[2] = molecular target: human metabotropic glutamate receptor 5 (hmGluR5) (UniProt P31424); assay: Calcium mobilization (FLIPR) assay, positive allosteric modulation of the EC20 glutamate response; format: cell-based; settings: HEK 293 cells; for maximum modulation (Emax): EC20 glutamate response; for pEC50: increase in EC20 glutamate response
Description: as §1
A silent allosteric modulator (SAM) can be identified by using a combination of both the calcium mobilization assay data and the radioligand binding data. As used herein, the term “silent allosteric modulator” refers to a ligand that binds to an allosteric site of the receptor but has no measurable intrinsic efficacy.

| SMILES | pIC50 [1] | maximum modulation (Emax) [2] [%] | pEC50 [2] |
| --- | --- | --- | --- |
| Cc1nc(C#Cc2ccccc2)sc1C(=O)NC1CCCC1 [Example 16, 4-Methyl-2-phenylethynyl-thiazole-5-carboxylic acid cyclopentylamide] | 7.44 |  |  |
| CC(O)(c1ccccc1)c1cnc(C#Cc2ccccc2)s1 (centres unmarked) [Example 240, 1-Phenyl-1-(2-phenylethynyl-thiazol-5-yl)-ethanol] | 6.85 |  |  |
| Cc1cccc(C#Cc2ncc(C(=O)NC3CCCC3)s2)c1 [Example 24, 2-m-Tolylethynyl-thiazole-5-carboxylic acid cyclopentylamide] | 9.15 |  |  |
| O=C(c1cnc(C#Cc2cccc(F)c2)s1)N1CCCC1 [Example 21, [2-(3-Fluoro-phenylethynyl)-thiazol-5-yl]-pyrrolidin-1-yl-methanone] | 8.15 |  |  |
| O=C(c1cnc(C#Cc2ccccc2)s1)N1C2CCC1CC2 [Example 145, (7-Aza-bicyclo[2.2.1]hept-7-yl)-(2-phenylethynyl-thiazol-5-yl)-methanone] | 8.30 |  |  |
| O=C(c1ccccc1)c1cnc(C#Cc2ccccc2)s1 [Example 237, Phenyl-(2-phenylethynyl-thiazol-5-yl)-methanone] | 6.44 |  |  |
| COC[C@@H]1CCCN1C(=O)c1cnc(C#Cc2ccccc2)s1 [Example 168, ((S)-2-Methoxymethyl-pyrrolidin-1-yl)-(2-phenylethynyl-thiazol-5-yl)-methanone] | 7.57 |  |  |
| O=C(c1cnc(C#Cc2ccccn2)s1)N1CCCCC1 [Example 191, Piperidin-1-yl-(2-pyridin-2-ylethynyl-thiazol-5-yl)-methanone] | 7.54 |  |  |
| Cc1cccc(C#Cc2ncc(C(=O)N3CCCCC3)s2)n1 [Example 193, [2-(6-Methyl-pyridin-2-ylethynyl)-thiazol-5-yl]-piperidin-1-yl-methasone] | 7.54 |  |  |
| Cc1nc(C#Cc2ccccc2)sc1C(=O)N1CCCCC1 [Example 13, (4-Methyl-2-phenylethynyl-thiazol-5-yl)-piperidin-1-yl-methanone] | 7.28 |  |  |
| C(#Cc1ncc(CN2CCCCC2)s1)c1ccccc1 [Example 206, 1-(2-Phenylethynyl-thiazol-5-ylmethyl)-piperidine] |  | 130 | 7.01 |
| O=C(c1cnc(C#Cc2ccc(F)cc2)s1)N1CCCCC1 [Example 30, [2-(4-Fluoro-phenylethynyl)-thiazol-5-yl]-piperidin-1-yl-methanone] |  | 110 | 7.54 |
| CC1CCN(C(=O)c2cnc(C#Cc3ccccc3F)s2)CC1 [Example 63, [2-(2-Fluoro-phenylethynyl)-thiazol-5-yl]-(4-methyl-piperidin-1-yl)-methanone] |  | 140 | 7.70 |
| O=C(c1cnc(C#Cc2ccccc2)s1)C1CCCCC1 [Example 238, Cyclohexyl-(2-phenylethynyl-thiazol-5-yl)-methanone] |  | 130 | 6.96 |
| O=C(c1cnc(C#Cc2ccccc2Cl)s1)N1CCCCC1 [Example 68, [2-(2-Chloro-phenylethynyl)-thiazol-5-yl]-piperidin-1-yl-methanone] |  | 100 | 6.36 |
| FC1(F)CCN(Cc2cnc(C#Cc3ccccc3)s2)CC1 [Example 223, 4,4-Difluoro-1-(2-phenylethynyl-thiazol-5-ylmethyl)-piperidine] |  | 110 | 7.44 |
| O=C(c1cnc(C#Cc2ccccc2)s1)N1CCC2(CCCO2)CC1 [Example 78] |  | 120 | 6.70 |
| CN1CCN(C(=O)c2cnc(C#Cc3cccc(Cl)c3)s2)CC1 [Example 158, [2-(3-Chloro-phenylethynyl)-thiazol-5-yl]-(4-methyl-piperazin-1-yl)-methanone] |  | 94 | 6.85 |
| Cc1nc(C#Cc2ccccc2)sc1C(=O)N1CCC(C)CC1 [Example 14, (4-Methyl-2-phenylethynyl-thiazol-5-yl)-(4-methyl-piperidin-1-yl)-methanone] |  | 91 | 7.64 |
| CC(c1cnc(C#Cc2ccccc2)s1)N1CCOCC1 (centres unmarked) [Example 232, 4-[1-(2-Phenylethynyl-thiazol-5-yl)-ethyl]-morpholine] |  | 62 | 6.66 |
| C(#Cc1ncc(CN2CC3CCC2C3)s1)c1ccccc1 (centres unmarked) [Example 218, 2-(2-Phenylethynyl-thiazol-5-ylmethyl)-2-aza-bicyclo[2.2.1]heptane] |  | 79 | 6.42 |
| CN(C)Cc1cnc(C#Cc2ccccc2)s1 [Example 212, Dimethyl-(2-phenylethynyl-thiazol-5-ylmethyl)-amine] |  | 71 | 7.43 |

The next lines start with the values.

| pIC50 [1] | maximum modulation (Emax) [2] [%] | pEC50 [2] | SMILES |
| --- | --- | --- | --- |
| 8.49 |  |  | O=C(c1cnc(C#Cc2ccccc2)s1)N1CC[C@H](F)C1 [Example 5, ((S)-3-Fluoro-pyrrolidin-1-yl)-(2-phenylethynyl-thiazol-5-yl)-methanone] |
| 8.49 |  |  | O=C(c1cnc(C#Cc2ccccc2)s1)N1CCCC1 [Example 4, (2-Phenylethynyl-thiazol-5-yl)-pyrrolidin-1-yl-methanone] |
| 7.60 |  |  | CC(C)(C)OC(=O)N1CC2CN(C(=O)c3cnc(C#Cc4ccccc4)s3)CC2C1 (centres unmarked) [Example 171, 5-(2-Phenylethynyl-thiazole-5-carbonyl)-hexahydro-pyrrolo[3,4-c]pyrrole-2-carboxylic acid tert-butyl ester] |
| 7.43 |  |  | O=C(c1cnc(C#Cc2ccccc2)s1)N1CC[C@@H](F)C1 [Example 6, ((R)-3-Fluoro-pyrrolidin-1-yl)-(2-phenylethynyl-thiazol-5-yl)-methanone] |
| 7.51 |  |  | O=C(c1cnc(C#Cc2ccccc2)s1)N1CCC(F)(F)C1 [Example 115, (3,3-Difluoro-pyrrolidin-1-yl)-(2-phenylethynyl-thiazol-5-yl)-methanone] |
| 7.27 |  |  | O=C(c1cnc(C#Cc2ccccc2)s1)N1CC(F)(F)C1 [Example 114, (3,3-Difluoro-azetidin-1-yl)-(2-phenylethynyl-thiazol-5-yl)-methanone] |
| 7.48 |  |  | COCC1CCCN(C(=O)c2cnc(C#Cc3ccccc3)s2)C1 (centres unmarked) [Example 123, (3-Methoxymethyl-piperidin-1-yl)-(2-phenylethynyl-thiazol-5-yl)-methanone] |
|  | 140 | 7.24 | COC1CCN(C(=O)c2cnc(C#Cc3ccccc3)s2)CC1 [Example 121, (4-Methoxy-piperidin-1-yl)-(2-phenylethynyl-thiazol-5-yl)-methanone] |
|  | 180 | 7.70 | O=C(c1cnc(C#Cc2ccccc2)s1)N1CCc2sccc2C1 [Example 135, (6,7-Dihydro-4H-thieno[3,2-c]pyridin-5-yl)-(2-phenylethynyl-thiazol-5-yl)-methanone] |
| 6.36 |  |  | O=C(c1cnc(C#Cc2ccccc2)s1)N1CC2CNCC2C1 (centres unmarked) [Example 173, (Hexahydro-pyrrolo[3,4-c]pyrrol-2-yl)-(2-phenylethynyl-thiazol-5-yl)-methasone] |
|  | 38 | 6.96 | CC1(O)CCN(C(=O)c2cnc(C#Cc3ccccc3)s2)C1 (centres unmarked) [Example 137, (3-Hydroxy-3-methyl-pyrrolidin-1-yl)-(2-phenylethynyl-thiazol-5-yl)-methanone] |
|  | 110 | 8.74 | O=C(c1cnc(C#Cc2ccccc2)s1)N1CC2CCCC2C1 (centres unmarked) [Example 144, (Hexahydro-cyclopenta[c]pyrrol-2-yl)-(2-phenylethynyl-thiazol-5-yl)-methanone] |
